The results in this text go back to US9980928B2, “Hydroxy aliphatic substituted phenyl aminoalkyl ether derivatives” (PROUS INSTITUTE FOR BIOMEDICAL RESEARCH, S.A., priority 2012, dated 2018).

Series [1] has as its system mice. Description: Tail suspension assay in mice. Type of series: in vivo. The procedure:
Another method of measuring antidepressant activity that may be used to evaluate the compounds of the present invention is the tail suspension test in mice described in Vogel, H. G. and Vogel, W. H. (Eds.) Drug Discovery and Evaluation, Springer-Verlag Berlin Heidelberg, 1997) pp. 304-3059). The mouse tail suspension assay was conducted 60 minutes after dosing. The duration of immobility was recorded for a period of 5 minutes after tail suspension was initiated, and reduction in the duration of immobility by ≥50% relative to the control group indicated antidepressant activity. Statistical analysis was also performed by using one-way ANOVA followed by Dunnett's test to compare the data of test compound-treated and vehicle control groups. Significance was considered to be P<0.05.

Series [2] concerns mice. Description: Novel object recognition test (acute). Type of series: in vivo. Particulars: same experimental conditions. The text has this: The novel object recognition task is used to evaluate cognition, particularly memory recognition, in rodent models of CNS disorders. This test is based on the spontaneous tendency of rodents to spend more time exploring a novel object than a familiar one. The choice to explore the novel object reflects the use of learning and memory recognition. The novel object recognition test provides a measure of activity in a novel environment allowing tests for emotional reactivity and also for novel object recognition, a cognitive domain that depends on hippocampal functional integrity. Animals were habituated to the presence of two identical objects (LEGO® pieces) during a single session of 5 minutes (training) and sniffing (exploration of an object was defined as pointing the nose to the object at a distance of <1 cm and/or touching it with the nose). Mice were injected with saline or with the compound to be tested and returned to their home cages. At 24 hours the animals were introduced in the same open field again with the same two items (familiarization), and again exploration in each of them for 5 minutes was registered. One hour later, the mice were retested in the open field for 3 minutes, but this time with one of the “familiar” objects replaced by a new one (test). To analyze cognitive performance, a discrimination index was calculated as the difference in time exploring the novel and familiar object, expressed as the ratio of the total time spent exploring both objects, which made it possible to adjust for any differences in total exploration time. This test is useful for assessing impaired cognitive ability in transgenic strains of mice and evaluating novel chemical entities for their effect on cognition (Zhang, R. J Alzheimers Dis 2012, 31(4): 801-12). […] Neuroplasticity 2007, 26496).

Another series deals with T1, serotonin transporter (Homo sapiens, UniProt P31645).
T1 construct: expressed in transfected cells; host or cells: CHO cells
T1 sequence (P31645 whole entry): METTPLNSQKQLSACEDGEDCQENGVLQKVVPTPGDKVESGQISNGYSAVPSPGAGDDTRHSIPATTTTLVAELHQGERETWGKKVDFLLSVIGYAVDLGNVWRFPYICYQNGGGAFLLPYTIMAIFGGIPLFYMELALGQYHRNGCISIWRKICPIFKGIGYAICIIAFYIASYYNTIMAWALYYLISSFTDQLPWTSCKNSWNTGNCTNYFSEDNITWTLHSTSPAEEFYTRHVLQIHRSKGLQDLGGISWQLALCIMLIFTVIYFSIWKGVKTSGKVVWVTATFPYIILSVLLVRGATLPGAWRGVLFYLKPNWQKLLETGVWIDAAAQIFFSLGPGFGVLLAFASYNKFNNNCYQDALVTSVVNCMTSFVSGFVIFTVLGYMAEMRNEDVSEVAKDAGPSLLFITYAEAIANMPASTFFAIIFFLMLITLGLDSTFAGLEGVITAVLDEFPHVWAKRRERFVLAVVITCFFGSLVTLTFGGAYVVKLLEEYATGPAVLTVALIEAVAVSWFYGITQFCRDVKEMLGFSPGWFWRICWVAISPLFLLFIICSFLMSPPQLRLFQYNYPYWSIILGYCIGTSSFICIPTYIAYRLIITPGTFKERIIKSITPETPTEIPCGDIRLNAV
Description: Serotonin transporter binding radioligand inhibition ([3H]-imipramine). Particulars: concentration 10 μM; read-out: serotonin binding inhibition. The text has this:
The serotonin transporter removes serotonin from the synaptic deft. The serotonin transporter terminates the effects of […], enabling its reuse by the presynaptic neuron.

Series [3] addresses T2, norepinephrine (NE) transporter (Homo sapiens, UniProt P23975).
T2 construct: expressed in transfected cells; host or cells: CHO cells
Put plainly: Norepinephrine transporter binding radioligand inhibition ([3H]-nisoxetine). The following applies: concentration 10 μM. How it is done:
The norepinephrine (NE) transporter removes NE from the synaptic cleft. The NE transporter terminates the effects of […], enabling its reuse by the presynaptic neuron. The in vitro binding of the compounds of the invention to the NE transporter and the percent inhibition of control-specific binding ([^3H]-nisoxetine in human recombinant CHO cells) is determined following the method described in Pacholczyk et al., (Nature 1991, 350(6316): 350-4.

A further series relates to CHO cells. Description: In vitro MTT toxicity screen. The following applies: 10 μM, compared to positive control group (10% DMSO). The format is cell-based, Chinese hamster. The procedure:
The toxicity of the compounds of the present invention at a concentration of 10 μM has been explored using the tetrazolium salt (MTT) method in CHO cells. The MTT method involving conversion of MTT to colored formazan by cells serves as an indirect measurement of cell growth/cell kill, as reported by several groups (Paimela, T. et al. Mol Vis 2012; 18: 1189-96; Hansen, M. B. et al. J Immunol Methods 1989, 119(2): 203-10).
In the MTT assay, cytotoxicity is correlated with the color of MTT and is measured with a spectrophotometer at the wavelength of 570 nm. Briefly, fresh MTT solution (10 mg/mL in 1×PBS) was added (1:20 volume of medium) and the cells were incubated for 1.5 hours. The cells were lysed and purple formazan was dissolved into the solution by overnight incubation with MTT lysis buffer (20% SDS, 50% N,N-dimethylformamide, 2% acetic acid, 25 mM HCl; the volume of medium+volume of MTT salt solution).

The target in a further series is uptake of norepinephrine (Homo sapiens, UniProt P23975). Description: Uptake inhibition of norepinephrine, cellular assay. Type of series: cell-based. Particulars: read-out: Norepinephrine reuptake inhibition (IC50 μM). The procedure: (§1) The effect of the compounds of the present invention as inhibitors of the uptake of norepinephrine and serotonin in cellular assays at concentrations that range from […] to 1 nM is determined following the methods described in Galli, A. et al. J Exp Biol 1995, 198(Pt. 10): 2197-212 and Gu, H. et al. J Biol Chem. 1994, 269(10):7124-30.
Chain of uptake of norepinephrine (P23975 whole entry): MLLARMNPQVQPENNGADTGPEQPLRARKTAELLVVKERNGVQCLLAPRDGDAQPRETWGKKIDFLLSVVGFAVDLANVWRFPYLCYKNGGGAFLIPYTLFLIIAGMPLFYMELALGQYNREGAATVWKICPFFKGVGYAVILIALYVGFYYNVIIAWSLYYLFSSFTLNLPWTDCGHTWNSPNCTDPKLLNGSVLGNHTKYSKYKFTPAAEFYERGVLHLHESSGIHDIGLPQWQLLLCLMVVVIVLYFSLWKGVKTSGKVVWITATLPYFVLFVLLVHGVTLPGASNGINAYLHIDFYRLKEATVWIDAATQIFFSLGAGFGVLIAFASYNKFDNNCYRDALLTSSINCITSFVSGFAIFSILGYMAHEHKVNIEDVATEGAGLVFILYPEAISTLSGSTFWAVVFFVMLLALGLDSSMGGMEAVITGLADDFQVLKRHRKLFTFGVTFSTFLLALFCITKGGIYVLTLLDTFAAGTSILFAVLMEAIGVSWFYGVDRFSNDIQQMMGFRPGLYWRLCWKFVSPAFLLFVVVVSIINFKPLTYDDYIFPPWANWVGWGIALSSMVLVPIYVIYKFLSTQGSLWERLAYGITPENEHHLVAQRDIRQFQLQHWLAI

The test system of series [4] is phosphorylation of CREB in SN56 and T48 cell lines. Put plainly: CREB phosphorylation in SN56 and T48 cell lines (western blot). Type of series: cell-based, mouse. Particulars: both cell lines (SN56 and T48). The procedure: The purpose of the study was to assess the acute biochemical neuronal changes in neurotrophin and synaptic plasticity signaling in vitro after the incubation in SN56 (fusion of mouse septal area cells and neuroblastoma cells with no TRKB expression) and T48 (SN56 stable transfected to express TrkB) cell lines the Examples 3 and 4. These changes were studied with a western blot assessment of Erk, Akt, PLC, Trkb, BDNF and CREB (cAMP response element-binding protein) phosphorilation assays.
Proteins were denatured in 62.5 mM Tris-HCl (pH 6.8), 2% (w/v) SDS, 10% glycerol, 140 mM β-mercaptoethanol and 0.1% (w/v) bromophenol blue, heated at 100° C. for 5 min (except for VGLUT1 blotting: 10 minutes 60° C.) and resolved in denaturing polyacrylamide gels (8% acrylamide); proteins were transferred to a nitrocellulose membrane), and washed twice in Tris-buffered saline containing 0.1% Tween-20 (TBS-T). […]
After primary antibody incubation, membranes were washed with TBS-T and incubated for 1 h at room temperature with the appropriated horseradish peroxidase-conjugated secondary antibody (Promega, Madison, Wis., USA), and the reaction was finally visualized with the Western Blotting Luminol Reagent (Santa Cruz Biotechnology, Santa Cruz, Calif., USA). Western blot replicates were scanned and quantified using a computer-assisted densitometric analysis. […]

The test system of series [5] is mice. Description: Mouse formalin assay (analgesic activity). The format is in vivo. The procedure:
The analgesic activity of the compounds of the present invention is determined making use of the mouse formalin test described in Hunskaar, S. J Neurosci Methods 1985, 14(1): 69-76. The hind paw licking time was measured at 5-minute intervals for 30 minutes following subplantar injection of formalin (0.02 mL, 2%). Statistical analysis using one-way ANOVA followed by Dunnett's test was applied for comparison between the test substance-treated and vehicle control groups. P<0.05 was considered significant.

The next series deals with uptake of serotonin (Homo sapiens, UniProt P31645). Description: Uptake inhibition of serotonin, cellular assay. Type of series: cell-based. Particulars: read-out: Serotonin reuptake inhibition (IC50 μM). How it is done:
as §1

In series [6] the target is T3, Human dopamine transporters (Homo sapiens, UniProt Q01959).
T3 construct: expressed in transfected cells; host or cells: CHO-K1 cells (membranes)
T3 sequence (Q01959 whole entry): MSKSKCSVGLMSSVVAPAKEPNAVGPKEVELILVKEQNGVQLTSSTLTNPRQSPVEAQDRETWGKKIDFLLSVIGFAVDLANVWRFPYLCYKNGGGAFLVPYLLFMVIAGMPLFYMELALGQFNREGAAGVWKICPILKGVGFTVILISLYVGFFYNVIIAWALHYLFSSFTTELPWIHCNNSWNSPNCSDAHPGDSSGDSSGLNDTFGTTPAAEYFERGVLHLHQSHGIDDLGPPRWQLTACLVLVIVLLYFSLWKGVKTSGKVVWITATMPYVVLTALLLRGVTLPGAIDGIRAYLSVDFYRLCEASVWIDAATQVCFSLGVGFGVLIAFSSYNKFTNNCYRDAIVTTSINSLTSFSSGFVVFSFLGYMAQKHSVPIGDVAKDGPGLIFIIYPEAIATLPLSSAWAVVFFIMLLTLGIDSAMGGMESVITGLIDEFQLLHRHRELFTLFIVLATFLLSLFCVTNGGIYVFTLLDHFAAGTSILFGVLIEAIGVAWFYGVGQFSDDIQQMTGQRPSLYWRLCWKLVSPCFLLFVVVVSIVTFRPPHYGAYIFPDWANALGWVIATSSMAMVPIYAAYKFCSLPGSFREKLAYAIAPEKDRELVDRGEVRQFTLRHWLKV
Put plainly: Binding to the dopamine transporter ([125I]-RTI-55). Particulars: reference compound; read-out: IC50, [125I]-RTI-55 binding to DAT. The procedure:
Human dopamine transporters expressed in CHO—K1 cells are used in modified Tris-HCl buffer at pH 7.4. […] Non-specific binding is estimated in the presence of […] nomifensine.

[7] abbreviates: 30 mg/kg oral, 60 minutes after dosing.

T2 sequence (P23975 whole entry): as the sequence (P23975 whole entry) above
Chain of uptake of serotonin (P31645 whole entry): as the sequence (P31645 whole entry) above

With `CNCCCN1c2ccccc2CCc2ccccc21` [Desipramine, reference compound], the “antidepressant effect (duration of immobility)” value (“antidepressant effect” for short) in the series with mice [1] (setting [7]) was “significant effect”.
For `C#CCN[C@@H]1CCc2ccccc21` [rasagiline, reference compound], the cognitive improvement result with mice [2] (3 mg/kg i.p.) is “absence of cognitive improvement”.
With `CNCC[C@H](Oc1ccc(CCO)cc1)c1ccccc1.Cl` [Example 4, (S)-2-[4-[3-(Methylamino)-1-phenylpropoxy]phenyl]ethanol hydrochloride], the inhibition at 10 µM on serotonin transporter fell in the range of 68 to 82%; in series [3], 65 to 90%. In addition, the “antidepressant effect” value in the series with mice [1] (setting [7]) is on record as “significant activity”; with mice [1] (90 mg/kg p.o.) it was “active”. For the same molecule, the “cell viability (MTT)” value in the series with CHO cells is on record as 100%. For the same molecule, the results for the half-maximal inhibitory concentration (IC50) at uptake of norepinephrine and at uptake of serotonin were 1.6 to 2.9 µM and 2.5 to 4.8 µM, respectively. Besides, the “phosphorylation of CREB” value in series [4] is recorded as “increase significantly”. Further, the “analgesic activity following formalin challenge (hind paw licking time)” value in the series on mice [5] (30 mg/kg oral) and with mice [5] (90 mg/kg oral) was “active” each time.
As for `CNCC[C@@H](Oc1ccc(CCO)cc1)c1ccccc1.Cl` [Example 3, (R)-2-[4-[3-(Methylamino)-1-phenylpropoxy]phenyl]ethanol hydrochloride], the inhibition at 10 µM is 68 to 82% at serotonin transporter and 65 to 90% in series [3]. For the same molecule, in the series on mice [1] (90 mg/kg p.o.), the “antidepressant effect” value is “active”. For the same molecule, the “cell viability (MTT)” value with CHO cells is 100%. In addition, the IC50 on uptake of norepinephrine is 1.6 to 2.9 µM; on uptake of serotonin it was 2.5 to 4.8 µM. Also, in [4], the “phosphorylation of CREB” value is listed as “increase significantly”. Besides, the “analgesic activity following formalin challenge (hind paw licking time)” value in the series with mice [5] (90 mg/kg oral) is reported as “active”.
`Cl.NCCC(Oc1ccc(CCO)cc1)c1ccccc1` (centres unmarked) [Example 12, 2-[4-(3-Amino-1-phenylpropoxy)phenyl]ethanol hydrochloride] returned a melting point of 68 to 70 °C. Also, the inhibition at 10 µM on serotonin transporter is 78%. For the same molecule, in series [3], testing at 10 µM gave an inhibition of 79%. Moreover, the IC50 on uptake of norepinephrine stood at 2.7 µM. Moreover, on uptake of serotonin, the IC50 is 1 µM.
Take `COC(=O)[C@H]1[C@H]2C[C@@H]3c4[nH]c5cc(OC)ccc5c4CCN3C[C@H]2C[C@@H](OC(=O)c2cc(OC)c(OC)c(OC)c2)[C@@H]1OC` [reserpine, reference compound]: the IC50 in [6] was determined as 1300 nM.
In turn, `Cl.OCCc1ccc(OCC2CNCCO2)cc1` (centres unmarked) [Example 18, 2-[4-(Morpholin-2-ylmethoxy)phenyl]ethanol hydrochloride] gave a melting point of 163 to 169 °C. The inhibition at 10 µM on serotonin transporter fell in the range of 68 to 82%. The molecule also returned an inhibition at 10 µM in series [3] of 65 to 90%. The “cell viability (MTT)” value with CHO cells was 100%. Further, on uptake of norepinephrine, the half-inhibitory concentration (IC50) lay in the range of 1.6 to 2.9 µM. In addition, in the series with mice [5] (90 mg/kg oral), the “analgesic activity following formalin challenge (hind paw licking time)” value is “demonstrated analgesic activity”. Besides, the IC50 at uptake of serotonin fell in the range of 2.5 to 4.8 µM.
With `CNCCC(Oc1ccc(C(F)(F)F)cc1)c1ccccc1` (centres unmarked) [Fluoxetine, reference compound], the cognitive improvement result in the series with mice [2] (30 mg/kg i.p.) is “absence of cognitive improvement”.
Regarding `CCN(CC)C(=O)C1(c2ccccc2)CC1CN` (centres unmarked) [milnacipran, reference compound], the cognitive improvement result with mice [2] (30 mg/kg i.p.) is on record as “absence of cognitive improvement”.
